Assays:
Alternaria alternata = Alternaria alternata in vitro cell test; type: cell-based; details: 120 h, 20 ppm of active ingredient, liquid culture, 5 days incubation, spectrometric measurement of mycelium growth, read-out: efficacy (inhibition of fungal growth)
Procedure, shortened: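 Spectrometric readout of mycelial growth after 5-day incubation gauged compound effects on spore germination and growth of A. alternata in liquid medium. Compounds were delivered in DMSO at ≤1% final. Absorbance was compared with untreated controls to give inhibition.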

Alternaria brassicae = assay: In vivo preventive test on Alternaria brassicae (leaf spot on radish or cabbage); details: 500 ppm of active ingredient, preventive spray on radish or cabbage, evaluated 3 to 4 days after inoculation, read-out: efficacy
Procedure, shortened: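 Protective spray on young radish or cabbage: actives in water diluted from DMSO/acetone/Tween 80, with solvent-only controls. Leaves were challenged after 24 h with a spore suspension, and plants were held at 100% RH, 20 °C for 3 to 4 days.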

[1] = tested on: Colletotrichum lindemuthianum; assay: B-8. Colletotrichum lindemuthianum in vitro cell test; type: cell-based; details: 144 h, 20 ppm of active ingredient, 6 days incubation, liquid culture, absorbance, read-out: efficacy (inhibition of fungal growth)
Procedure, shortened: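 Liquid-culture germination/growth test: compounds in ≤1% final DMSO were added to spore-containing medium. Fungal growth was quantified spectrophotometrically after 6 days of incubation and expressed as inhibition versus untreated controls.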

Botrytis cinerea [2] = assay: In vivo preventive test on Botrytis cinerea (grey mould); details: 500 ppm of active ingredient, preventive spray on gherkin or cabbage, evaluated 4 to 5 days after inoculation, read-out: efficacy
Procedure, shortened: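 Preventive spray on cabbage or gherkin seedlings, with compound formulated in DMSO/acetone/Tween 80 and water-diluted, preceded spore inoculation by 24 hours. Cabbage was held 4 to 5 days at 20° C., 100% relative humidity; gherkin 4 to 5 days at 17° C., 90% relative humidity.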

[3] = Measurement of Log P values by HPLC on reversed phase columns (EEC directive 79/831 Annex V.A8); type: physicochemical; details: reversed phase HPLC column
Procedure, shortened: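 Log P derived from retention on reversed-phase columns (EEC directive 79/831 Annex V.A8), LC-UV, acetonitrile gradient 10% to 95% against water containing 0.1% formic acid, 0.001 M ammonium acetate, or 0.1% phosphoric acid; several values per method separated by "+".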

Sphaerotheca fuliginea = assay: In vivo preventive test on Sphaerotheca fuliginea (powdery mildew on cucurbits); details: Podosphaera fuliginea, 192 h; 500 ppm of active ingredient; preventive spray on gherkin; evaluated 8 days after inoculation; read-out: efficacy
Description: B-4. in vivo preventive test on Sphaerotheca fuliginea (powdery mildew on cucurbits) [table] The active ingredients were made soluble and homogenized in a mixture of Dimethyl sulfoxide/Acetone/Tween® 80 and then diluted in water to the desired concentration. The young plants of gherkin were treated by spraying the active ingredient prepared as described above. Control plants were treated only with an aqueous solution of Acetone/Dimethyl sulfoxide/Tween® 80. After 24 hours, the plants were contaminated by spraying the leaves with an aqueous suspension of Sphaerotheca fuliginea spores. The contaminated gherkin plants were incubated for 8 days at 20° C. and at 70-80% relative humidity.

Botrytis cinerea [4] = assay: B-11. Botrytis cinerea in vitro cell test; type: cell-based; details: 144 h, 20 ppm of active ingredient, 6 days incubation, liquid culture, absorbance, read-out: efficacy (inhibition of fungal growth)
Procedure, shortened: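 B. cinerea spores were grown in liquid culture with compound (DMSO ≤1% final). Mycelium growth was measured spectrometrically after 6 days, with inhibition taken as absorbance relative to untreated control wells.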

Pyrenophora teres = assay: B-10. Pyrenophora teres in vitro cell test; type: cell-based; details: 144 h, 20 ppm of active ingredient, 6 days incubation, liquid culture, absorbance, read-out: efficacy (inhibition of fungal growth)
Procedure, shortened: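 Liquid-culture assay on a P. teres spore suspension with compounds added to the medium from DMSO solutions, final DMSO ≤1%. Mycelium growth read spectrometrically after 6 days. Inhibition calculated from absorbance against untreated control wells.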

[5] = method [a]: LC-UV, acidic range, 0.1% formic acid in water and acetonitrile as eluent
[6] = method [b]: LC-UV, neutral range, 0.001 molar ammonium acetate solution in water and acetonitrile as eluent

Row | Compound | chromatographic logP [3, 5] | chromatographic logP [3, 6] | inhibition at 20 ppm (Alternaria alternata) [%] | pest or weed control at 500 ppm (Alternaria brassicae) [%] | inhibition at 20 ppm [1] [%] | pest or weed control at 500 ppm (Botrytis cinerea [2]) [%] | pest or weed control at 500 ppm (Sphaerotheca fuliginea) [%] | inhibition at 20 ppm (Botrytis cinerea [4]) [%] | inhibition at 20 ppm (Pyrenophora teres) [%]
1 | Cc1cccc(Oc2nnc3ccccc3c2C(=O)N[C@@H](C)c2cccc(C(F)(F)F)c2)c1 (racemic) [I-020] | 3.79 |  | 80 to 89 | 90 to 100 | 70 to 79 | 90 to 100 | 70 to 79 |  | 
2 | Cc1ccc(CCNC(=O)c2c(Oc3cccc(C(F)(F)F)c3)nnc3ccc(C)cc23)c(C)c1 [I-003] | 4.47 |  | 90 to 100 | 90 to 100 | 90 to 100 | 90 to 100 | 90 to 100 |  | 
3 | Cc1ccc(CCNC(=O)c2c(Oc3cccc(C(F)(F)F)c3)nnc3cc(C)ccc23)c(C)c1 [I-004, N-[2-(2,4-dimethylphenyl)ethyl]-7-methyl-3-[3-(trifluoro-methyl)phenoxy]cinnoline-4-carboxamide] | 4.51 |  | 90 to 100 | 90 to 100 | 90 to 100 | 90 to 100 | 90 to 100 |  | 
4 | Cc1ccc(CCNC(=O)c2c(Oc3cccc(C(F)(F)F)c3)nnc3ccc(F)cc23)c(C)c1 [I-006] | 4.46 |  | 90 to 100 | 90 to 100 | 90 to 100 | 90 to 100 | 90 to 100 | 90 to 100 | 
5 | COc1ccc2nnc(Oc3cccc(C(F)(F)F)c3)c(C(=O)NCCc3ccc(C)cc3C)c2c1 [I-010] | 4.29 |  | 90 to 100 | 80 to 89 |  | 90 to 100 | 90 to 100 |  | 
6 | O=C(NCC(F)(F)c1ccc(Cl)cc1)c1c(Oc2cccc(Cl)c2)nnc2ccccc12 [I-012] |  |  | 90 to 100 | 90 to 100 | 90 to 100 | 90 to 100 | 90 to 100 |  | 
7 | O=C(NCC(F)(F)c1ccc(Cl)cc1)c1c(Oc2cccc(C(F)(F)F)c2)nnc2ccccc12 [I-023] | 4.13 |  | 90 to 100 | 90 to 100 | 90 to 100 | 90 to 100 | 90 to 100 |  | 
8 | Cc1ccc(C(F)(F)CNC(=O)c2c(Oc3cncc(C(F)(F)F)c3)nnc3ccccc23)c(C)c1 [I-025] | 3.87 |  | 90 to 100 | 90 to 100 | 90 to 100 | 90 to 100 | 90 to 100 |  | 
9 | O=C(NCC(F)(F)c1ccc(Cl)cc1)c1c(Oc2cncc(C(F)(F)F)c2)nnc2ccccc12 [I-026] | 3.61 |  | 90 to 100 | 90 to 100 | 90 to 100 | 90 to 100 | 90 to 100 |  | 
10 | O=C(NCC(F)(F)c1ccc(Br)cc1Cl)c1c(Oc2cccc(C(F)F)c2)nnc2ccccc12 [I-035] | 4.14 |  | 90 to 100 | 90 to 100 | 90 to 100 | 90 to 100 | 70 to 79 |  | 

Second part, led by results:

Row | chromatographic logP [3, 5] | chromatographic logP [3, 6] | Compound | inhibition at 20 ppm (Alternaria alternata) [%] | pest or weed control at 500 ppm (Alternaria brassicae) [%] | inhibition at 20 ppm [1] [%] | pest or weed control at 500 ppm (Botrytis cinerea [2]) [%] | pest or weed control at 500 ppm (Sphaerotheca fuliginea) [%] | inhibition at 20 ppm (Botrytis cinerea [4]) [%] | inhibition at 20 ppm (Pyrenophora teres) [%]
11 | 4.56 |  | O=C(NC[C@H](F)c1ccc(Br)cc1Cl)c1c(Oc2cccc(C(F)(F)F)c2)cnc2ccccc12 (racemic) [I-041] | 90 to 100 | 90 to 100 | 90 to 100 | 90 to 100 | 90 to 100 |  | 
12 | 4.46 |  | O=C(NC[C@H](F)c1ccc(Cl)cc1Cl)c1c(Oc2cccc(C(F)(F)F)c2)cnc2ccccc12 (racemic) [I-043] | 90 to 100 | 90 to 100 | 90 to 100 | 90 to 100 | 90 to 100 |  | 
13 | 4.08 |  | Cc1cc(C(F)F)ccc1[C@@H](F)CNC(=O)c1c(Oc2cccc(C(F)(F)F)c2)cnc2ccccc12 (racemic) [I-057] | 90 to 100 | 90 to 100 | 90 to 100 | 90 to 100 | 90 to 100 | 90 to 100 | 
14 | 4.05 |  | COc1cc([C@@H](F)CNC(=O)c2c(Oc3cccc(C(F)(F)F)c3)cnc3ccccc23)ccc1Cl (racemic) [I-058] | 90 to 100 | 90 to 100 | 90 to 100 | 90 to 100 | 90 to 100 | 90 to 100 | 
15 | 4.47 |  | O=C(NC[C@@H](F)c1ccc(Cl)c(Cl)c1)c1c(Oc2cccc(C(F)(F)F)c2)cnc2ccccc12 (racemic) [I-059] | 90 to 100 |  |  | 90 to 100 | 70 to 79 | 90 to 100 | 
16 | 4.7 |  | O=C(NC[C@H](F)c1ccc(C2CC2)cc1Cl)c1c(Oc2cccc(C(F)(F)F)c2)cnc2ccccc12 (racemic) [I-062] | 90 to 100 | 90 to 100 | 90 to 100 | 90 to 100 | 90 to 100 | 90 to 100 | 
17 | 4.59 |  | Cc1cc(Br)ccc1[C@@H](F)CNC(=O)c1c(Oc2cccc(C(F)(F)F)c2)cnc2ccccc12 (racemic) [I-063] | 90 to 100 | 90 to 100 | 90 to 100 | 90 to 100 | 90 to 100 | 90 to 100 | 
18 | 4.03 | 3.99 | O=C(N[C@H]1CCCc2cc(Br)ccc21)c1c(Oc2cccc(C(F)(F)F)c2)cnc2c1OCCO2 (racemic) [I-111] |  | 90 to 100 | 90 to 100 | 90 to 100 | 90 to 100 |  | 
19 | 4.27 | 4.22 | Cc1ccc(C(F)(F)CNC(=O)c2c(Oc3cccc(C(F)(F)F)c3)nnc3ccccc23)c(C)c1 [I-008] | 90 to 100 | 80 to 89 | 80 to 89 | 90 to 100 | 90 to 100 |  | 
20 | 4.58 |  | O=C(NCC(F)(F)c1ccc(Br)cc1Cl)c1c(Oc2cccc(C(F)(F)F)c2)nnc2ccccc12 [I-021] | 90 to 100 | 90 to 100 | 90 to 100 | 90 to 100 | 90 to 100 |  | 
21 | 4.08 |  | O=C(NCC(F)(F)c1ccc(Br)cc1Cl)c1c(Oc2cncc(C(F)(F)F)c2)nnc2ccccc12 [I-027] | 90 to 100 | 90 to 100 | 90 to 100 | 90 to 100 | 90 to 100 |  | 
22 | 3.58 |  | Cc1ccc(C(F)(F)CNC(=O)c2c(Oc3cccc(C(F)(F)F)c3)nnc3c2CCOCC3)c(C)c1 [I-114, N-[2-(2,4-dimethylphenyl)-2,2-difluoro-ethyl]-3-[3-(trifluoro-methyl)phenoxy]-5,6,8,9-tetrahydrooxepino[4,5-c]pyridazine-4-carboxamide] | 90 to 100 | 70 to 79 | 90 to 100 | 90 to 100 | 90 to 100 |  | 
23 | 4.59 |  | Cc1ccc(C(F)(F)CNC(=O)c2c(Oc3cccc(C(F)(F)F)c3)c(C)nc3ccccc23)c(C)c1 [I-185] | 80 to 89 | 70 to 79 |  |  | 90 to 100 |  | 90 to 100

Reference: patent publication US20230192617A1, “AZABICYCLIC(THIO)AMIDES AS FUNGICIDAL COMPOUNDS” (Bayer CropScience Aktiengesellschaft, priority 2020, published 2023)
